In PubChem BioAssay AID1259408 (Genetic Toxicology Data Bank (GENE-TOX), 2018):
Activity calls are given as the source filed them. The rule behind the calls is not given here.

Tested on: GENE-TOX genotoxicity assays, various organisms and cells
Test: GENE-TOX mutagenicity studies
Details: for call: Assay Type: In vivo carcinogenicity studies, Assay Code: CCG+
[1] = Species/Cell Type: Nonhuman, Evaluation Type: Evaluation A (Pre-1980)
[2] = Species/Cell Type: Rodents, Sex: Male, Assay Type: Dominant lethal test, Assay Code: DLT-, Evaluation Type: Evaluation A (Pre-1980)
[3] = Species/Cell Type: Saccharomyces cerevisiae, Assay Type: Mitotic recombination or gene conversion, Assay Code: YEH+, Evaluation Type: Evaluation A (Pre-1980)
[4] = Species/Cell Type: Salmonella typhimurium (one or more of the five standard strains: TA98, TA100, TA1535, TA1537, and TA1538), Assay Type: Histidine reverse gene mutation, Ames assay, Assay Code: SAL+*, Activation: With metabolic activation, Evaluation Type: Evaluation A (Pre-1980)
[5] = Species/Cell Type: Human diploid fibroblasts, Assay Type: Unscheduled DNA synthesis (UDS) in vitro, DNA effects, Assay Code: UDH-, Evaluation Type: Evaluation A (Pre-1980)
[6] = Species/Cell Type: Salmonella typhimurium (one or more of the five standard strains: TA98, TA100, TA1535, TA1537, and TA1538), Assay Type: Histidine reverse gene mutation, Ames assay, Assay Code: SAL+, Evaluation Type: Evaluation A (Pre-1980)

CCN(CC)N=O
mutagenic call (Species/Cell Type: Chinese hamster lung (V79) cells, Assay Type: Forward gene mutation at the HPRT or ouabain locus, Assay Code: V79+, Evaluation Type: Evaluation A (Pre-1980)): active; positive
mutagenic call (Species/Cell Type: Chinese hamster ovary (CHO) cells, Assay Type: Forward gene mutation at the HPRT locus, Assay Code: CHO+*, Activation: With metabolic activation, Evaluation Type: Evaluation B (Post-1980)): active; positive
mutagenic call (Species/Cell Type: Drosophila melanogaster, Assay Type: Sex-linked recessive lethal gene mutation, Assay Code: SRL+, Evaluation Type: Evaluation A (Pre-1980)): active; positive
mutagenic call (Species/Cell Type: Drosophila melanogaster, Sex: Male, Assay Type: Heritable translocation test, chromosome aberrations, Assay Code: DHTT, Evaluation Type: Evaluation A (Pre-1980)): no conclusion
mutagenic call (Species/Cell Type: Escherichia coli polA (W3110 vs P3478), Assay Type: Rec-assay, DNA effects (bacterial DNA repair), Assay Code: RE2+, Evaluation Type: Evaluation A (Pre-1980)): active; positive
mutagenic call (Species/Cell Type: Escherichia coli polA (W3119 vs P3478), Assay Type: Rec-assay, DNA effects (bacterial DNA repair), Assay Code: RE1-, Evaluation Type: Evaluation A (Pre-1980)): inactive; negative
mutagenic call (Species/Cell Type: Fischer rat embryo (RLV/1706) cells, Assay Type: Cell transformation, viral enhanced, Assay Code: CTR+, Evaluation Type: Evaluation A (Pre-1980)): active; positive
mutagenic call (Species/Cell Type: Human diploid fibroblasts, Assay Type: Unscheduled DNA synthesis (UDS) in vitro, DNA effects, Assay Code: UDHT, Evaluation Type: Evaluation A (Pre-1980)): no conclusion
mutagenic call (Species/Cell Type: Human lymphocytes, Assay Type: Sister-chromatid exchange (SCE) in vitro, Assay Code: SCL+D*, Activation: With metabolic activation, Dose Response: With dose response, Evaluation Type: Evaluation B (Post-1980)): active; positive
mutagenic call (Species/Cell Type: Human lymphocytes, Assay Type: Sister-chromatid exchange (SCE) in vitro, Assay Code: SCL-, Evaluation Type: Evaluation A (Pre-1980)): inactive; negative
mutagenic call (Species/Cell Type: Human, Assay Type: Sister-chromatid exchange (SCE) in vitro, Assay Code: SC1+D*, Activation: With metabolic activation, Dose Response: With dose response, Evaluation Type: Evaluation B (Post-1980)): active; positive
mutagenic call (Species/Cell Type: Human, Assay Type: Sister-chromatid exchange (SCE) in vitro, Assay Code: SC1-, Evaluation Type: Evaluation A (Pre-1980)): inactive; negative
mutagenic call (Species/Cell Type: Mammalian polychromatic erythrocytes, Assay Type: Micronucleus test, chromosome aberrations, Assay Code: MNTT, Evaluation Type: Evaluation A (Pre-1980)): no conclusion
mutagenic call (Species/Cell Type: Mouse germ cells, Sex: Male, Assay Type: Unscheduled DNA synthesis (UDS) in vivo, DNA effects, Assay Code: UDT-, Evaluation Type: Evaluation A (Pre-1980)): inactive; negative
mutagenic call (Species/Cell Type: Mouse lymphoma (L5178Y) cells, Assay Type: Forward gene mutation at the thymidine kinase (TK) locus, chromosome aberrations, Assay Code: L51+*, Activation: With metabolic activation, Evaluation Type: Evaluation A (Pre-1980)): active; positive
mutagenic call (Species/Cell Type: Mouse, Sex: Female, Assay Type: Spot test, gene mutation, Assay Code: MST-, Evaluation Type: Evaluation A (Pre-1980)): inactive; negative
mutagenic call (Species/Cell Type: Mouse, Sex: Male, Assay Type: Specific locus test, gene mutation, Assay Code: SLT-, Evaluation Type: Evaluation A (Pre-1980)): inactive; negative
mutagenic call (Species/Cell Type: Neurospora crassa, Assay Type: Forward gene mutation, Assay Code: NEF+, Evaluation Type: Evaluation A (Pre-1980)): active; positive
mutagenic call (Species/Cell Type: Neurospora crassa, Assay Type: Reverse gene mutation, Assay Code: NER+, Evaluation Type: Evaluation A (Pre-1980)): active; positive
mutagenic call (Species/Cell Type: Nonhuman, Assay Type: Chromosome aberrations in vitro, Assay Code: CY&+*, Activation: With metabolic activation, Evaluation Type: Evaluation A (Pre-1980)): active; positive
call [1]: active; positive
mutagenic call (Species/Cell Type: Nonhuman, Assay Type: Sister-chromatid exchange (SCE) in vitro, Assay Code: SC2+D, Dose Response: With dose response, Evaluation Type: Evaluation A (Pre-1980)): active; positive
mutagenic call (Species/Cell Type: Nonhuman, Assay Type: Sister-chromatid exchange (SCE) in vivo, Assay Code: SC3+, Evaluation Type: Evaluation B (Post-1980)): active; positive
mutagenic call (Species/Cell Type: Nonhuman, Assay Type: Sister-chromatid exchange (SCE) in vivo, Assay Code: SC3+D, Dose Response: With dose response, Evaluation Type: Evaluation A (Pre-1980)): active; positive
mutagenic call (Species/Cell Type: Rat primary hepatocytes, Assay Type: Unscheduled DNA synthesis (UDS) in vitro, DNA effects, Assay Code: UDP+, Evaluation Type: Evaluation A (Pre-1980)): active; positive
mutagenic call [2]: inactive; negative
mutagenic call (Species/Cell Type: Saccharomyces cerevisiae, Assay Type: Forward gene mutation, Assay Code: YEF+*, Activation: With metabolic activation, Evaluation Type: Evaluation A (Pre-1980)): active; positive
mutagenic call [3]: active; positive
mutagenic call [4]: active; positive
mutagenic call (Species/Cell Type: Salmonella typhimurium, Escherichia coli, Serratia marcesens, Chinese hamster lung (V79) cells, Assay Type: Forward and reverse gene mutation, host-mediated assay, Assay Code: HM1+, Evaluation Type: Evaluation A (Pre-1980)): active; positive
mutagenic call (Species/Cell Type: Syrian hamster embryo (SHE) cells, Assay Type: Cell transformation, clonal assay, Assay Code: CTC+*, Activation: With metabolic activation, Evaluation Type: Evaluation A (Pre-1980)): active; positive

COc1ccc2c(c1)C(=O)N(CCc1ccc(S(=O)(=O)NC(=O)NC3CCCCC3)cc1)C(=O)C2(C)C
mutagenic call (Species/Cell Type: Nonhuman, Assay Type: Sister-chromatid exchange (SCE) in vivo, Assay Code: SC3T, Evaluation Type: Evaluation B (Post-1980)): no conclusion

CN(N=O)C(C)(C)C
mutagenic call (Species/Cell Type: Chinese hamster lung (V79) cells, Assay Type: Forward gene mutation at the HPRT or ouabain locus, Assay Code: V79-, Evaluation Type: Evaluation A (Pre-1980)): inactive; negative

CCN(CC)Cc1cc(Br)ccc1OCC(=O)N/N=C\c1ccccc1
mutagenic call (Species/Cell Type: Saccharomyces cerevisiae, Assay Type: Reverse gene mutation, Assay Code: YERT, Evaluation Type: Evaluation A (Pre-1980)): no conclusion

CCCCCCCCCCCCCC(=O)N(O)c1ccc2c(c1)Cc1ccccc1-2
mutagenic call [5]: inactive; negative
mutagenic call [6]: active; positive

CO[C@@H]1C[C@](C)(O)Cc2cc3c(c(O)c21)C(=O)c1c(O)cc2c(c1C3=O)O[C@@H]1O[C@@]2(C)[C@H](O)[C@@H](N(C)C)[C@@H]1O
mutagenic call (Species/Cell Type: Mammalian polychromatic erythrocytes, Assay Type: Micronucleus test, chromosome aberrations, Assay Code: MNT+, Evaluation Type: Evaluation B (Post-1980)): active; positive
mutagenic call (Species/Cell Type: Nonhuman, Assay Type: Sister-chromatid exchange (SCE) in vitro, Assay Code: SC2+, Evaluation Type: Evaluation B (Post-1980)): active; positive

O=[N+]([O-])c1ccc(N2CCN(Cc3ccccc3)CC2)c2c1no[n+]2[O-]
mutagenic call [6]: active; positive

BrCC(Br)C(Br)CBr (centres undefined)
mutagenic call [2]: inactive; negative

C/C=C/c1ccc(O)c(OC)c1
mutagenic call (Species/Cell Type: Human lymphocytes, Assay Type: Sister-chromatid exchange (SCE) in vitro, Assay Code: SCL+, Evaluation Type: Evaluation B (Post-1980)): active; positive

O=C(CCN1CCCCC1)c1ccc2c(c1)OCO2
mutagenic call (Species/Cell Type: Salmonella typhimurium, Assay Type: Forward and reverse gene mutation, host-mediated assay, Assay Code: HMA+, Evaluation Type: Evaluation A (Pre-1980)): active; positive

CCCCNC(=O)NS(=O)(=O)c1ccc(C)cc1
mutagenic call (Species/Cell Type: Mammalian polychromatic erythrocytes, Assay Type: Micronucleus test, chromosome aberrations, Assay Code: MNT+, Evaluation Type: Evaluation A (Pre-1980)): active; positive
mutagenic call (Species/Cell Type: Nonhuman, Assay Type: Sister-chromatid exchange (SCE) in vivo, Assay Code: SC3+D, Dose Response: With dose response, Evaluation Type: Evaluation B (Post-1980)): active; positive

CN(N=O)C(=O)Oc1cccc2c1OC(C)(C)C2
mutagenic call (Species/Cell Type: Nonhuman, Assay Type: Sister-chromatid exchange (SCE) in vitro, Assay Code: SC2+D, Dose Response: With dose response, Evaluation Type: Evaluation B (Post-1980)): active; positive

CCCCCN(C)N=O
mutagenic call (Species/Cell Type: Escherichia coli polA (W3119 vs P3478), Assay Type: Rec-assay, DNA effects (bacterial DNA repair), Assay Code: RE1+, Evaluation Type: Evaluation A (Pre-1980)): active; positive

ClC(Cl)c1ccccc1
mutagenic call (Species/Cell Type: Bacillus subtilis (H17 vs M45), Assay Type: Rec-assay, spot test, DNA effects (bacterial DNA repair), Assay Code: REW+, Evaluation Type: Evaluation A (Pre-1980)): active; positive
mutagenic call [4]: active; positive

C1CCNCC1
mutagenic call (Species/Cell Type: Salmonella typhimurium, Assay Type: Forward and reverse gene mutation, host-mediated assay, Assay Code: HMA-, Evaluation Type: Evaluation A (Pre-1980)): inactive; negative

C=C(Cl)CSC(=S)N(CC)CC
call [1]: active; positive
mutagenic call [4]: active; positive

COP(=S)(OC)SCn1nnc2ccccc2c1=O
mutagenic call (Species/Cell Type: Bacillus subtilis (H17 vs M45), Assay Type: Rec-assay, spot test, DNA effects (bacterial DNA repair), Assay Code: REWT, Evaluation Type: Evaluation A (Pre-1980)): no conclusion
mutagenic call (Species/Cell Type: Drosophila melanogaster, Assay Type: Sex-linked recessive lethal gene mutation, Assay Code: SRLT, Evaluation Type: Evaluation A (Pre-1980)): no conclusion
mutagenic call (Species/Cell Type: Escherichia coli WP2 UVRA, Assay Type: Tryptophan reverse gene mutation, Assay Code: WPU-*, Activation: With metabolic activation, Evaluation Type: Evaluation A (Pre-1980)): inactive; negative
mutagenic call (Species/Cell Type: Escherichia coli polA (W3119 vs P3478), Assay Type: Rec-assay, DNA effects (bacterial DNA repair), Assay Code: RE1T, Evaluation Type: Evaluation A (Pre-1980)): no conclusion
mutagenic call [5]: inactive; negative
mutagenic call (Species/Cell Type: Nonhuman, Assay Type: Sister-chromatid exchange (SCE) in vitro, Assay Code: SC2-, Evaluation Type: Evaluation B (Post-1980)): inactive; negative
mutagenic call [3]: active; positive
mutagenic call (Species/Cell Type: Salmonella typhimurium (one or more of the five standard strains: TA98, TA100, TA1535, TA1537, and TA1538), Assay Type: Histidine reverse gene mutation, Ames assay, Assay Code: SALT, Evaluation Type: Evaluation A (Pre-1980)): no conclusion
